Calls of active or inactive are those of the source. The calls are words filed in the database; no cut-off is given here.
How the values were obtained:
[1] = Retention time of compound by HPLC analysis; type: physicochemical
[2] = molecular target: T1, Protein deacetylase HDAC6 (Homo sapiens) (UniProt Q9UBN7); conditions: dose 500.0 nM, time 3.0 hrs
T1 sequence (whole entry): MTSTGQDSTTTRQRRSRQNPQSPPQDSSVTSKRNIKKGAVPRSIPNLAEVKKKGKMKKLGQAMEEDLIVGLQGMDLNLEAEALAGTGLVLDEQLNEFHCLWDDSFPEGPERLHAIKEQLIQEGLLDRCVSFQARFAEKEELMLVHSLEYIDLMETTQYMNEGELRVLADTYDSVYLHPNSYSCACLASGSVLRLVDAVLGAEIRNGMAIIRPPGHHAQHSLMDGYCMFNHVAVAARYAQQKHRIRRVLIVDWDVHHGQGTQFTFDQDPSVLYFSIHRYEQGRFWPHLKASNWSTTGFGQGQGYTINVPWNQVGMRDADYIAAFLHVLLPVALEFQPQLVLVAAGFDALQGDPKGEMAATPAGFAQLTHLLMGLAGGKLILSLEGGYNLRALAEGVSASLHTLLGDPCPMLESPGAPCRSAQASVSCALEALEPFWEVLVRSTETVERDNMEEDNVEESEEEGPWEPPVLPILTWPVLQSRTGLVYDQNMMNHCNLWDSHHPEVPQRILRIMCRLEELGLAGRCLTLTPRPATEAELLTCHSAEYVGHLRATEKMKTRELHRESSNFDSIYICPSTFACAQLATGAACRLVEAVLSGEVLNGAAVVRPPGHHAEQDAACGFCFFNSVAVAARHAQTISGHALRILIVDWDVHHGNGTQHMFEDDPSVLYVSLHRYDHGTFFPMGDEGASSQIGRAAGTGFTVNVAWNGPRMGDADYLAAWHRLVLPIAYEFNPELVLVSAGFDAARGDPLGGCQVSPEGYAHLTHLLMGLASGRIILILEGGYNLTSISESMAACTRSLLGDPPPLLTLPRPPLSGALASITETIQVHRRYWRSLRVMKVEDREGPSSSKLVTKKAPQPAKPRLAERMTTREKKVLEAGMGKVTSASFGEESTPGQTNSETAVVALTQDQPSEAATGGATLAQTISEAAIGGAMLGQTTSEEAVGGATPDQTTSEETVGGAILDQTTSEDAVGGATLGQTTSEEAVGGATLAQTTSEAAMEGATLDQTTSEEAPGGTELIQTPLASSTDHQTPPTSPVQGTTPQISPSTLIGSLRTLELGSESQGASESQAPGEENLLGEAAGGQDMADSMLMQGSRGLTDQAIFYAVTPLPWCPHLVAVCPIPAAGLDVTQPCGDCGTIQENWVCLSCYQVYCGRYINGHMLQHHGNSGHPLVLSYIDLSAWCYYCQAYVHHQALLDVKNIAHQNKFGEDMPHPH

Histone deacetylase 1 = Histone deacetylase 1 (Homo sapiens, UniProt Q13547); conditions: dose 500.0 nM, time 3.0 hrs
Histone deacetylase 3 = Histone deacetylase 3 (Homo sapiens, UniProt O15379); conditions: dose 500.0 nM, time 3.0 hrs
Mus musculus [3] = experiment: Immunomodulatory activity in male C57BL/6 mouse model implanted with mouse B16-F10 cells assessed as increase in CD3+ CD8+ T cells in tumor at 50 mg/kg, po administered once daily for 14 days by flow cytometric analysis (reference value: 3.2 %); type: functional; conditions: time 14 day
Mus musculus [4] = experiment: Effect on acetylated alpha-tubulin level in male C57BL/6 mouse tumor implanted with mouse B16-F10 cells at 50 mg/kg, po administered once daily via gavage for 14 days by Western blot analysis; type: functional, organism-based; conditions: time 14.0 day
[5] = molecular target: T2, Histone deacetylase 3 (Mus musculus) (UniProt O88895); experiment: Inhibition of HDAC3 in mouse B16-F10 cells assessed as increase in histone H3 acetylation level at 5 to 20 uM incubated for 24 hrs by Western blot analysis; type: cell-based; conditions: dose 5-20 µM
T2 sequence (whole entry): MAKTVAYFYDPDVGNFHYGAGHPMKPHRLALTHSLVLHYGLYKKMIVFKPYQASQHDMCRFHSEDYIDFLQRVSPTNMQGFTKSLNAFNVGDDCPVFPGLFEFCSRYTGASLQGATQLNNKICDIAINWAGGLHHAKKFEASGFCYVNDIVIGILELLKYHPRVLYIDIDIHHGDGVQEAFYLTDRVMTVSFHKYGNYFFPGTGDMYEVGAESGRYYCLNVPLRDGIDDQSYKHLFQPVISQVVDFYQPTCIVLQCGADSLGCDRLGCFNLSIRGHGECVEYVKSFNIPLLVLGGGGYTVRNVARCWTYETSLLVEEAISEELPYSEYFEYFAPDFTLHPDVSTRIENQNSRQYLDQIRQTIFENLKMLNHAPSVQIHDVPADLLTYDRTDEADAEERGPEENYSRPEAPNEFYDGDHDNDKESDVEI

Mus musculus [6] = experiment: Immunomodulatory activity in male C57BL/6 mouse model implanted with mouse B16-F10 cells assessed as increase in CD3+ CD4+ T cells in tumor at 50 mg/kg, po administered once daily for 14 days by flow cytometric analysis (reference value: 3.1 %); type: functional; conditions: time 14 day
[7] = molecular target: T2, Histone deacetylase 3 (Mus musculus); experiment: Inhibition of HDAC3 in mouse 4T1 cells assessed as increase in histone H3 acetylation level at 5 to 20 uM incubated for 24 hrs by Western blot analysis; type: cell-based; conditions: dose 5-20 µM
[8] = molecular target: T2, Histone deacetylase 3 (Mus musculus); experiment: In vivo inhibition of HDAC3 in male C57BL/6 mouse model implanted with mouse B16-F10 cells assessed as increase in acetylated histone H3 level at 50 mg/kg, po administered once daily via gavage for 14 days by Western blot analysis; type: functional, organism-based; conditions: time 14.0 day
[9] = molecular target: T2, Histone deacetylase 3 (Mus musculus); experiment: In vivo inhibition of HDAC3 in male C57BL/6 mouse model implanted with mouse B16-F10 cells assessed as increase in acetylated histone H3 level in tumor at 50 mg/kg, po administered once daily via gavage for 14 days by DAPI staining based immunofluorescence analysis; type: functional, organism-based; conditions: time 14.0 day
B16-F10 = experiment: cells; type: functional, cell-based; conditions: Mus musculus, B16-F10, 72 h
Description: Antiproliferative activity against mouse B16-F10 cells assessed as inhibition of cell growth incubated for 72 hrs by MTT assay

Histone deacetylase 11 = Histone deacetylase 11 (Homo sapiens, UniProt Q96DB2); experiment: Inhibition of recombinant HDAC11 (unknown origin) preincubated for 1 hr followed by substrate addition and measured after 2 hrs by fluorescence based micro plate reader analysis
HCT-116 = experiment: cells; type: functional, cell-based; conditions: Homo sapiens, HCT-116, 72 h
Description: Antiproliferative activity against human HCT-116 cells assessed as inhibition of cell growth incubated for 72 hrs by MTT assay

SK-OV-3 = experiment: cells; type: functional, cell-based; conditions: Homo sapiens, SK-OV-3, 72 h
Description: Antiproliferative activity against human SK-OV-3 cells assessed as inhibition of cell growth incubated for 72 hrs by MTT assay

4T1 = experiment: cells; type: functional, cell-based; conditions: Mus musculus, 4T1, 72 h

Histone deacetylase 3, sequence (O15379 whole entry): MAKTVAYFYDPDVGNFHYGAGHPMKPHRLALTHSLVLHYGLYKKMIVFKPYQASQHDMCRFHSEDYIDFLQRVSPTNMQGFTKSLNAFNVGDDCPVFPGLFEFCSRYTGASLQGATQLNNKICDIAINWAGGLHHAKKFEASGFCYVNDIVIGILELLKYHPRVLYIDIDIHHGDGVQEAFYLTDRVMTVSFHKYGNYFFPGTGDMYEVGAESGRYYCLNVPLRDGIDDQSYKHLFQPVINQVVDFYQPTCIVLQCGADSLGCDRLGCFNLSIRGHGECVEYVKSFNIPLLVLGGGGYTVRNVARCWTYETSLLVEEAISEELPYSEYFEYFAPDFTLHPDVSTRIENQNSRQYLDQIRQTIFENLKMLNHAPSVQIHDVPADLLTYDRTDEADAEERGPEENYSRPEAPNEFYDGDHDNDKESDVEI
Histone deacetylase 1, sequence (Q13547 whole entry): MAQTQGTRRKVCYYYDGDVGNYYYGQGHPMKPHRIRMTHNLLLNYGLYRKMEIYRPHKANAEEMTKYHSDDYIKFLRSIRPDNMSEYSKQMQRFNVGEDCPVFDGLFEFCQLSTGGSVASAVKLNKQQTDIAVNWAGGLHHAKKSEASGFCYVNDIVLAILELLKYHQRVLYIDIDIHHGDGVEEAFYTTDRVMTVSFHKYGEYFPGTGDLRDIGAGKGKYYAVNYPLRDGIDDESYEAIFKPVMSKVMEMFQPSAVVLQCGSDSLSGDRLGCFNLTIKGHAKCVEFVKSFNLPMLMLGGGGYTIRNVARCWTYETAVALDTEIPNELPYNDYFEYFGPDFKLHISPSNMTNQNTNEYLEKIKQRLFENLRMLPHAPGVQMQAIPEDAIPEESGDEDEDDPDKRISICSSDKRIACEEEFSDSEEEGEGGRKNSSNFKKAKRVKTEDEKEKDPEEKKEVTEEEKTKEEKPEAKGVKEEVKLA
Histone deacetylase 11, sequence (Q96DB2 whole entry): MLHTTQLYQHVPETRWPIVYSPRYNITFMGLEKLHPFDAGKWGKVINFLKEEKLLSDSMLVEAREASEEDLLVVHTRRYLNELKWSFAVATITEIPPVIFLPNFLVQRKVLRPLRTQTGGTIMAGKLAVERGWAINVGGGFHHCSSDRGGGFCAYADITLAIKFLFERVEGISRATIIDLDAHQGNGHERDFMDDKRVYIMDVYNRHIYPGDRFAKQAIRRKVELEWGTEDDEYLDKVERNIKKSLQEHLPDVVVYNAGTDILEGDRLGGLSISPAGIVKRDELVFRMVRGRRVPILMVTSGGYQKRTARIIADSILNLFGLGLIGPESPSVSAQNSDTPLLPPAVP

| Compound | inhibition [2] [%] | inhibition (Histone deacetylase 1) [%] | inhibition (Histone deacetylase 3) [%] | other results |
| --- | --- | --- | --- | --- |
| CC(/C=C/C(=O)NO)=C\[C@@H](C)C(=O)c1ccc(N(C)C)cc1 [TRICHOSTATIN] |  |  |  | Retention_time [1]: 14.7 min |
| CCCNNC(=O)c1ccc(Cn2c3ccccc3c3c(C4CCN(C(=O)OC(C)(C)C)CC4)nc4ccccc4c32)cc1 | < 10 | 22 | 73 |  |
| CCCCCCCCCNNC(=O)c1ccc(Cn2c3ccccc3c3c(-c4ccccn4)nc4ccccc4c32)cc1 | < 10 | < 10 | 29 |  |
| C/C=C/CNNC(=O)c1ccc(Cn2c3ccccc3c3c(-c4ccccn4)nc4ccccc4c32)cc1 | < 10 | 39 | 91 |  |
| O=C(CCCCCCC(=O)Nc1ccccc1)NO [VORINOSTAT] |  |  | 77 | Activity (Mus musculus [3]): 23%; Activity (Mus musculus [4]): inactive; inhibition [5]: Active; Activity (Mus musculus [6]): 17%; inhibition [7]: Active; inhibition [8]: Active; inhibition [9]: Active |
| CC(C)NNC(=O)c1ccc(Cn2c3ccccc3c3c(-c4ccccn4)nc4ccccc4c32)cc1 | < 10 | < 10 | < 10 |  |
| Nc1ccccc1NC(=O)c1ccc(CNC(=O)OCc2cccnc2)cc1 [ENTINOSTAT] | 24 | 88 |  | IC50 (B16-F10): 13.9 µM; IC50 (Histone deacetylase 11): > 10 µM; IC50 (HCT-116): 1.67 µM; IC50 (SK-OV-3): > 10 µM; IC50 (4T1): 6.85 µM |
| CCCCCCCCCCNNC(=O)c1ccc(Cn2c3ccccc3c3c(-c4ccccn4)nc4ccccc4c32)cc1 | < 10 | < 10 | < 10 |  |
| CCCN(CCC)NC(=O)c1ccc(Cn2c3ccccc3c3c(-c4ccccn4)nc4ccccc4c32)cc1 | < 10 | 23 | 29 |  |
| CCCN(CCC)NC(=O)c1ccc(Cn2c3ccccc3c3c(C4CCN(C(=O)OC(C)(C)C)CC4)nc4ccccc4c32)cc1 | < 10 | < 10 | < 10 |  |
| CCCCCCCCNNC(=O)c1ccc(Cn2c3ccccc3c3c(-c4ccccn4)nc4ccccc4c32)cc1 | 26 | < 10 | 40 |  |
| CC(C)CCNNC(=O)c1ccc(Cn2c3ccccc3c3c(-c4ccccn4)nc4ccccc4c32)cc1 | < 10 | < 10 | < 10 |  |
| CCNNC(=O)c1ccc(Cn2c3ccccc3c3c(-c4ccccn4)nc4ccccc4c32)cc1 | < 10 | 11 | 32 |  |

More lines, main results first:

| inhibition [2] [%] | inhibition (Histone deacetylase 1) [%] | inhibition (Histone deacetylase 3) [%] | Compound | other results |
| --- | --- | --- | --- | --- |
| 18 | < 10 | 47 | CCCNNC(=O)c1ccc(Cn2c3ccccc3c3c(-c4cccc([N+](=O)[O-])c4)nc4ccccc4c32)cc1 |  |
| < 10 | 20 | 79 | CCCNNC(=O)c1ccc(Cn2c3ccccc3c3c(-c4ccc(O)c(OC)c4)nc4ccccc4c32)cc1 |  |
| < 10 | 20 | 82 | CCCCCNNC(=O)c1ccc(Cn2c3ccccc3c3c(-c4ccccn4)nc4ccccc4c32)cc1 |  |
| 30 | 31 | 47 | CCCNNC(=O)c1ccc(Cn2c3ccccc3c3c(-c4cc(Cl)ccc4O)nc4ccccc4c32)cc1 |  |
| 14 | 27 | 66 | CCCNNC(=O)c1ccc(Cn2c3ccccc3c3c(-c4cc(OC)ccc4O)nc4ccccc4c32)cc1 |  |
| < 10 | < 10 | 36 | CCCNNC(=O)c1ccc(Cn2c3ccccc3c3c(-c4cn(C)c5ccccc45)nc4ccccc4c32)cc1 |  |
| < 10 | 27 | 31 | CCCN(CCC)NC(=O)c1ccc(Cn2c3ccccc3c3c(-c4cccc(F)c4)nc4ccccc4c32)cc1 |  |
| < 10 | < 10 | 33 | CCCNNC(=O)c1ccc(Cn2c3ccccc3c3c(-c4ccc(C#N)cc4)nc4ccccc4c32)cc1 |  |
| < 10 | 22 | 53 | CCCCCCCNNC(=O)c1ccc(Cn2c3ccccc3c3c(-c4ccccn4)nc4ccccc4c32)cc1 |  |
| < 10 | < 10 | 38 | CCCNNC(=O)c1ccc(Cn2c3ccccc3c3c(-c4ccc(C(=O)NNCCC)cc4)nc4ccccc4c32)cc1 |  |
| < 10 | 35 | 92 | CCCCNNC(=O)c1ccc(Cn2c3ccccc3c3c(-c4ccccn4)nc4ccccc4c32)cc1 |  |
| < 10 | 25 | 73 | CCCNNC(=O)c1ccc(Cn2c3ccccc3c3c(-c4cccc(Cl)c4)nc4ccccc4c32)cc1 |  |
| < 10 | 20 | 69 | CCCNNC(=O)c1ccc(Cn2c3ccccc3c3c(-c4cccc(F)c4)nc4ccccc4c32)cc1 |  |
| 21 | 16 | 84 | CCCNNC(=O)c1ccc(Cn2c3ccccc3c3c(-c4cccnc4)nc4ccccc4c32)cc1 |  |
| 19 | 12 | 65 | CCCNNC(=O)c1ccc(Cn2c3ccccc3c3c(-c4ccncc4)nc4ccccc4c32)cc1 |  |
| < 10 | 29 | 58 | CCCNNC(=O)c1ccc(Cn2c3ccccc3c3c(-c4ccc(OC)cc4)nc4ccccc4c32)cc1 |  |
| 24 | < 10 | 57 | CCCNNC(=O)c1ccc(Cn2c3ccccc3c3c(-c4ccccc4)nc4ccccc4c32)cc1 |  |
